Source: patent US8710233B2 (Gruenenthal GmbH, priority 2005, dated 2014)
Like-named read-outs stand apart in the source and are kept apart here.

Columns and labels:
vanilloid receptor (VR1) [1] = biological target: T1, vanilloid receptor (VR1) (Homo sapiens, UniProt Q8NER1); experiment: FLIPR Ca2+ influx assay on CHO K1 cells transfected with the VR1 gene (pharmacological method II); assay type: cell-based; details: CHO-K1; @ 0.1 μM; read-out: inhibition in percent, Ki (human) Cap.
T1 construct: expressed in transfected cells; host or cells: CHO K1 cells (ECACC), stably transfected

vanilloid receptor (VR1) [2] = biological target: T1, vanilloid receptor (VR1); experiment: as above; assay type: cell-based; details: table 4; capsaicin; read-out: Ki (human) Cap.
[3] = biological target: T2, vanilloid receptor 1 (VR1/TRPV1) of the rat species (Rattus norvegicus, UniProt O35433); experiment: FLIPR Ca2+ influx assay on rat dorsal root ganglia cells (pharmacological method I); assay type: cell-based; details: for Ki: table 4, capsaicin
T2 construct: The spinal column is removed from decapitated rats; from tissue; host or cells: primary cells dissociated from rat dorsal root ganglia
Summary of the method: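 Primary rat dorsal root ganglion cells loaded with 2 μM Fluo-4, Ca2+ influx read on FLIPR as peak fluorescence. Triplicates, at least 3 independent experiments.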

[4] = test system: capsaicin induced hypothermie; experiment: Hypothermie assay in the mouse (capsaicin induced hypothermie); assay type: in vivo; details: mouse, read-out: inhibition hypothermie (n = 5); for inhibition in vivo at 0.3 mg/kg: 0.3 mg/kg body weight po
[5] = test system: formaldehyde induced nociceptive behaviour; experiment: Formaldehyde test in mice, second (late) phase; assay type: in vivo, mouse; details: mouse, read-out: inhibition formaldehyde test (n = 10); for inhibition in vivo at 0.3 mg/kg: 0.3 mg/kg body weight po
VR1/TRPV1 receptor = VR1/TRPV1 receptor (Homo sapiens, UniProt Q8NER1); experiment: IC50 (human) after pH stimulus; assay type: cell-based; details: table 4
Sequence of VR1/TRPV1 receptor (Q8NER1 whole entry): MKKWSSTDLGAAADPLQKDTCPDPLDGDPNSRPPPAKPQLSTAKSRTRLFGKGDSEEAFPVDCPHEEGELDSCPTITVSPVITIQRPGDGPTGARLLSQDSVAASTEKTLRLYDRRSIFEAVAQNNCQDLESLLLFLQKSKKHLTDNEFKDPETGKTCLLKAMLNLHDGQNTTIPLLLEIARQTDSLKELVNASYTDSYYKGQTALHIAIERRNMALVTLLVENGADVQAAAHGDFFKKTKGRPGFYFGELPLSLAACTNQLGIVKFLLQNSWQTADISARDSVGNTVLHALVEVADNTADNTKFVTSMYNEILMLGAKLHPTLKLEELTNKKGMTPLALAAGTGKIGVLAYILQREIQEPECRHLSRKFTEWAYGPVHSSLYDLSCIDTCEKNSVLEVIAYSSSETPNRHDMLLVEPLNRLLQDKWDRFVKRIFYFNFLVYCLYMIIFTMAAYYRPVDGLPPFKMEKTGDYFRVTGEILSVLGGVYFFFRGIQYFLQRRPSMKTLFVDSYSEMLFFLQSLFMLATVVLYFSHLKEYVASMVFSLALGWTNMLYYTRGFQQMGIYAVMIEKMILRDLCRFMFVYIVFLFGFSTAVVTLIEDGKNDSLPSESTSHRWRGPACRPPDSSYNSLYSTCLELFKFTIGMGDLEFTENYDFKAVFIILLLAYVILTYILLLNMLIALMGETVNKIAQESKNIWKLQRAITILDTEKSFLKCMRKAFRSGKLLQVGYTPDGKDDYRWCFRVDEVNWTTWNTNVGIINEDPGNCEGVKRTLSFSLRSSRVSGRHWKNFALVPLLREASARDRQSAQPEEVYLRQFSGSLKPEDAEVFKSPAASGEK

T2 sequence (O35433 whole entry): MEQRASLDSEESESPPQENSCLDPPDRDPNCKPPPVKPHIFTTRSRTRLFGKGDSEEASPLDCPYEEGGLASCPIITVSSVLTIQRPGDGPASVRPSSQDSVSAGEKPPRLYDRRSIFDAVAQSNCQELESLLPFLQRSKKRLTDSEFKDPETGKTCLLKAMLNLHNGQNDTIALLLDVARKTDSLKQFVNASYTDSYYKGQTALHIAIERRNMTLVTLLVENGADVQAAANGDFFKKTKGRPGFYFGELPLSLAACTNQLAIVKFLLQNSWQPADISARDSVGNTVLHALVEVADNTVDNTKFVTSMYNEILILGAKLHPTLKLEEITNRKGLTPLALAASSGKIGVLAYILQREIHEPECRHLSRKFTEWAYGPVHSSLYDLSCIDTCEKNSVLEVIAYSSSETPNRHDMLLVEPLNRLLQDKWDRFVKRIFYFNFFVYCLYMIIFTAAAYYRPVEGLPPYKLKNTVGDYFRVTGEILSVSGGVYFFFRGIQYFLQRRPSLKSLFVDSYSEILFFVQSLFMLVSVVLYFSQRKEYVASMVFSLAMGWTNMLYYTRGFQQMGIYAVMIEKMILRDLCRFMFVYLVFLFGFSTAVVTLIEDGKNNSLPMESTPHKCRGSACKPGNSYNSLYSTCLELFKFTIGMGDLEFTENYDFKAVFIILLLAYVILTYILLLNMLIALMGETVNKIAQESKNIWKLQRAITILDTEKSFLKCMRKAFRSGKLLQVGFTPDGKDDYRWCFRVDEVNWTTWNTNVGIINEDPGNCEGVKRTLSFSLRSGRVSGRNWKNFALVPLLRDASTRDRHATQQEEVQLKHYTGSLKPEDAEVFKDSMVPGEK
T1 sequence (Q8NER1 whole entry): as the sequence (Q8NER1 whole entry) above

| SMILES | inhibition at 0.1 µM (vanilloid receptor (VR1) [1]) | Ki (vanilloid receptor (VR1) [2]) | Ki ([3]; read-out: Ki (rat) Cap.) | IC50 (VR1/TRPV1 receptor) | Ki ([3]; Ki (rat) Cap.) | inhibition in vivo at 0.3 mg/kg [4] | inhibition in vivo at 0.3 mg/kg [5] | inhibition in vivo at 0.1 mg/kg ([5]; 0.1 mg/kg body weight po) | inhibition at 1 µM ([3]; read-out: inhibition in percent, Ki (rat) Cap.) | inhibition in vivo at 0.1 mg/kg ([4]; 0.1 mg/kg body weight po) |
| --- | --- | --- | --- | --- | --- | --- | --- | --- | --- | --- |
| CC(C(=O)NCc1c(CO)cc(C(C)(C)C)nc1OCc1ccccc1)c1ccc(NS(C)(=O)=O)c(F)c1 (stereo not drawn) [Compound 223] | 4% | – | – | – | – | – | – | – | – | – |
| CC(C(=S)NCc1ccc(C(F)(F)F)nc1N1CCCC1)c1ccc(NS(C)(=O)=O)c(F)c1 (stereo not drawn) [Example 129, 2-(3-fluoro-4-methylsulfonamido-phenyl)-N-(2-pyrrolidin-1-yl-6-trifluoromethyl-pyridin-3-ylmethyl)-thiopropionamide] | – | 1.8 nM | 1.6 nM | 77.2 nM | – | 10% | 5% | – | – | – |
| CC(C(=S)NCc1ccc(C(F)(F)F)nc1-c1ccc(F)cc1)c1ccc(NS(C)(=O)=O)c(F)c1 (stereo not drawn) [Example 130, 2-(3-fluoro-4-methylsulfonamido-phenyl)-N-[2-(4-fluoro-phenyl)-6-trifluoromethyl-pyridin-3-ylmethyl]-thiopropionamide] | – | 2.1 nM | 4.5 nM | 34.3 nM | – | 58% | 41% | – | – | – |
| COC1CCN(c2nc(C(F)(F)F)ccc2CNC(=O)C(C)c2ccc(NS(C)(=O)=O)c(F)c2)CC1 (stereo not drawn) [Example 159, 2-(3-fluoro-4-methylsulfonamido-phenyl)-N-(4-methoxy-6′-trifluoromethyl-3,4,5,6-tetrahydro-2H-[1,2′]bipyridinyl-3′-ylmethyl)-propionamide] | – | 2.4 nM | 21.4 nM | 280 nM | – | 28% | 10% | – | – | – |
| CCCCOC1CCN(c2nc(C(F)(F)F)ccc2CNC(=O)C(C)c2ccc(NS(C)(=O)=O)c(F)c2)CC1 (stereo not drawn) [Example 160, N-(4-butoxy-6′-trifluoromethyl-3,4,5,6-tetrahydro-2H-[1,2′]bipyridinyl-3′-ylmethyl)-2-(3-fluoro-4-methylsulfonamido-phenyl)-propionamide] | – | 3.5 nM | 3 nM | 28.2 nM | – | 28% | 10% | – | – | – |
| CCC1CCC(Oc2nc(C(F)(F)F)ccc2CNC(=O)C(C)c2ccc(NS(C)(=O)=O)c(F)c2)CC1 (stereo not drawn) [Example 171, N-[2-(4-ethyl-cyclohexyloxy)-6-trifluoromethyl-pyridin-3-ylmethyl]-2-(3-fluoro-4-methylsulfonamido-phenyl)-propionamide] | – | 4.8 nM | – | 125 nM | 2.4 nM | 32% | 45% | – | – | – |
| CC(C(=O)NCc1ccc(C(F)(F)F)nc1NCc1ccc(Cl)cc1)c1ccc(NS(C)(=O)=O)c(F)c1 (stereo not drawn) [Example 173, N-[2-(4-chloro-benzylamino)-6-trifluoromethyl-pyridin-3-ylmethyl]-2-(3-fluoro-4-methylsulfonamido-phenyl)-propionamide] | – | 65.7 nM | 78.4 nM | 414 nM | – | 36% | 0% | – | – | – |
| CC(C(=O)NCc1ccc(C(F)(F)F)nc1OCc1ccncc1)c1ccc(NS(C)(=O)=O)c(F)c1 (stereo not drawn) [Example 177, 2-(3-fluoro-4-methylsulfonamido-phenyl)-N-[2-(pyridin-4-ylmethoxy)-6-trifluoromethyl-pyridin-3-ylmethyl]-propionamide] | – | 51 nM | – | 1290 nM | – | 14% | 31% | – | 34% | – |
| CC(C(=O)NCc1ccc(C(F)(F)Cl)nc1OCc1ccccn1)c1ccc(NS(C)(=O)=O)c(F)c1 (stereo not drawn) [Example 182, N-[6-(chloro-difluoro-methyl)-2-(pyridin-2-ylmethoxy)-pyridin-3-ylmethyl]-2-(3-fluoro-4-methylsulfonamido-phenyl)-propionamide] | – | 4.2 nM | 7.3 nM | 637 nM | – | 45% | 1% | – | – | – |
| CC(C(=O)NCc1ccc(C(F)(F)F)cc1N1CCCCCCC1)c1ccc(NS(C)(=O)=O)c(F)c1 (stereo not drawn) [Example 217, N-(2-azocan-1-yl-4-trifluoromethyl-benzyl)-2-(3-fluoro-4-methylsulfonamido-phenyl)-propionamide] | – | 2.8 nM | 1.1 nM | 36.5 nM | – | – | 9% | – | – | 40% |

Continued, in another order:

| inhibition at 0.1 µM (vanilloid receptor (VR1) [1]) | Ki (vanilloid receptor (VR1) [2]) | Ki ([3]; read-out: Ki (rat) Cap.) | IC50 (VR1/TRPV1 receptor) | Ki ([3]; Ki (rat) Cap.) | SMILES | inhibition in vivo at 0.3 mg/kg [4] | inhibition in vivo at 0.3 mg/kg [5] | inhibition in vivo at 0.1 mg/kg ([5]; 0.1 mg/kg body weight po) | inhibition at 1 µM ([3]; read-out: inhibition in percent, Ki (rat) Cap.) | inhibition in vivo at 0.1 mg/kg ([4]; 0.1 mg/kg body weight po) |
| --- | --- | --- | --- | --- | --- | --- | --- | --- | --- | --- |
| – | 0.5 nM | 0.6 nM | 15.4 nM | – | Cc1cc(C(C)C(=O)NCc2ccc(C(F)(F)F)nc2N2CCCCC2)ccc1NS(C)(=O)=O (stereo not drawn) [Example 127, 2-(4-methylsulfonamido-3-methyl-phenyl)-N-(6′-trifluoromethyl-3,4,5,6-tetrahydro-2H-[1,2′]bipyridinyl-3′-ylmethyl)-propionamide] | 6% | 22% | – | – | – |
| – | 1.3 nM | 1.1 nM | 63.6 nM | – | CC(C(=O)NCc1ccc(C(F)(F)F)nc1-c1cccc(F)c1)c1ccc(NS(C)(=O)=O)c(F)c1 (stereo not drawn) [Example 148, 2-(3-fluoro-4-methylsulfonamido-phenyl)-N-[2-(3-fluoro-phenyl)-6-trifluoromethyl-pyridin-3-ylmethyl]-propionamide] | 45% | 44% | – | – | – |
| – | 0.5 nM | 1.1 nM | 18.5 nM | – | CC(C(=O)NCc1ccc(C(F)(F)Cl)nc1OC1CCCC1)c1ccc(NS(C)(=O)=O)c(F)c1 (stereo not drawn) [Example 166, N-[6-(chloro-difluoro-methyl)-2-cyclopentyloxy-pyridin-3-ylmethyl]-2-(3-fluoro-4-methylsulfonamido-phenyl)-propionamide] | 28% | 48% | – | – | – |
| – | 0.8 nM | 2.8 nM | 21.3 nM | – | CCCCN(C)c1nc(C(F)(F)F)ccc1CNC(=O)C(C)c1ccc(NS(C)(=O)=O)c(F)c1 (stereo not drawn) [Example 167, N-[2-(butyl-methyl-amino)-6-trifluoromethyl-pyridin-3-ylmethyl]-2-(3-fluoro-4-methylsulfonamido-phenyl)-propionamide] | 19% | – | 62% | – | – |
| – | 0.9 nM | 1.4 nM | 17.6 nM | – | CC(C(=O)NCc1ccc(C(F)(F)Cl)nc1OC1CCCCC1)c1ccc(NS(C)(=O)=O)c(F)c1 (stereo not drawn) [Example 168, N-[6-(chloro-difluoro-methyl)-2-cyclohexyloxy-pyridin-3-ylmethyl]-2-(3-fluoro-4-methylsulfonamido-phenyl)-propionamide] | 21% | 1% | – | – | – |
| – | 1.6 nM | 1.4 nM | 64.5 nM | – | CC(C(=O)NCc1ccc(C(F)(F)F)cc1N1CCCCCC1)c1ccc(NS(C)(=O)=O)c(F)c1 (stereo not drawn) [Example 174, N-(2-azepan-1-yl-4-trifluoromethyl-benzyl)-2-(3-fluoro-4-methylsulfonamido-phenyl)-propionamide] | 39% | 5% | – | – | – |
| – | 1.1 nM | 1 nM | 23.1 nM | – | CC(C(=O)NCc1ccc(C(F)(F)F)nc1N1CCN(c2ccc(F)cc2)CC1)c1ccc(NS(C)(=O)=O)c(F)c1 (stereo not drawn) [Example 179, 2-(3-fluoro-4-methylsulfonamido-phenyl)-N-{2-[4-(4-fluoro-phenyl)-piperazin-1-yl]-6-trifluoromethyl-pyridin-3-ylmethyl}-propionamide] | 57% | 5% | – | – | – |
